Measurements as given in patent US20090181952A1 (Wyeth, priority 2008, published 2009).
Where two headings read alike, the source gives them in different places.

Assays:
rat-alpha7-nAChR = target: T1, rat-alpha7-nAChR (Rattus norvegicus, UniProt Q05941); experiment: functional FLIPR assay, alpha7 nAChR stably expressed in GH4C1 cells; type: cell-based
T1 construct: expressed in transfected cells

[1] = metabolite profile in rat plasma by LC/MS; type: in vivo; details: rat plasma after single 6.7 or 20.5 mg/kg IV dose of parent
Method: (§1) Rat plasma samples from single 6.7 mg/kg IV at 0, 10 min and 20.5 mg/kg IV at 0, 0.5, 4 hr post dosing; dog plasma samples from single 1.5 mg/kg IV at 0, 0.167, 1, 6 hr and 7.6 mg/kg PO at 0, 0.5, 2, 6 hr post dosing were analyzed by LC/MS. A standard of the parent compound was analyzed by LC/MS and there was no impurity detected.
In rat plasma, a compound of formula I was the predominant compound-related material while metabolites were detected at very low levels. […] (See FIGS. 1 and 2; for compound I′ n=1, R^1=methyl, and R^2═H)

[2] = metabolite profile in dog plasma by LC/MS; type: in vivo; details: dog plasma after single […] IV or 7.6 mg/kg PO dose of parent
Method: as §1

[3] = functional FLIPR primary screening assay, GH4C1 cell line expressing α7 nAChR, read-out: Alpha7 EC50

T1 sequence (Q05941 23-502): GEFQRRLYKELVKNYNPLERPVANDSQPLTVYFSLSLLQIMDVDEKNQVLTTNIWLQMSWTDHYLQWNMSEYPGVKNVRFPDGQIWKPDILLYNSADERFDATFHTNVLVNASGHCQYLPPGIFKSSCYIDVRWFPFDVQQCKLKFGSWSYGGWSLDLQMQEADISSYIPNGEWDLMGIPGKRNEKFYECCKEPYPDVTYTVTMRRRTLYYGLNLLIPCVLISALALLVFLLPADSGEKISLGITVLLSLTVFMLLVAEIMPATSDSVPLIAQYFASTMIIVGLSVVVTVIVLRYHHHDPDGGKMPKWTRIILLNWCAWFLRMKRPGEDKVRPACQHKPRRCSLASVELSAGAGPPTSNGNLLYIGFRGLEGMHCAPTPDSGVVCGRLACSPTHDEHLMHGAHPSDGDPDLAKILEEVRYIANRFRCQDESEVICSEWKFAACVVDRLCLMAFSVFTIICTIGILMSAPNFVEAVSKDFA

| Compound | EC50 (rat-alpha7-nAChR; [3]) [nM] | compound-related material detected in rat plasma [1] | also measured |
| --- | --- | --- | --- |
| CC(=O)N1CCCC(CCCCC(=O)Nc2cc(-c3ccc(O)cc3)[nH]n2)CC1 (stereo not drawn) | 1000 | – | – |
| CC(=O)N1CCCN(CCCCC(=O)Nc2cc(-c3ccc(O)cc3)n[nH]2)CC1 [Compound I-1] | – | detected as metabolites | compound-related material detected in dog plasma [2]: very minor metabolite |
| C[N+]1(C)CCN(c2ccccc2)CC1 [DMPP, reference compound] | – | – | EC50 (rat-alpha7-nAChR; alpha7 nAChR stably expressed in GH4C1 cells, functional FLIPR assay, agonist validation, read-out: EC50): 980 ± 470 nM |

Continued, in another order:

| EC50 (rat-alpha7-nAChR; [3]) [nM] | compound-related material detected in rat plasma [1] | Compound | also measured |
| --- | --- | --- | --- |
| 6900 | – | COc1ccc(C2CC(NC(=O)CCCCN3CCCNCC3)NN2)cc1 (stereo not drawn) | – |
| – | detected as metabolites | CC(=O)N1CCCN(CCCCC(=O)Nc2cc(-c3ccc(OS(=O)(=O)O)cc3)[nH]n2)CC1 [Compound I-2] | – |
